Data: patent publication US20150203807A1, “INACTIVATION OF A […] USING A FATTY ACID” (NOVOZYMES A/S, priority 2012, published 2015)

Test system: Trichoderma reesei microbial host cells
Assay: Inactivation of the microbial host cells in fermentation broth (growth on agar plates)
Format: cell-based
Settings: hexanoic acid at 0.09%, 0.28%, 0.46%, 0.65% (w/w) in fermentation broth; pH 4.5; 24 hrs constant stirring at room temperature; samples incubated for 4 days at 30 degrees Celsius
Method: The fatty acid is added to the fermentation broth at various concentrations (0.09% (w/w); 0.28% (w/w); 0.46% (w/w); 0.65% (w/w)).
pH is adjusted to 4.5 using an aqueous solution of acetic acid (CAS 64-19-7) and/or aqueous sodium hydroxide (CAS 1310-73-2).
The fermentation broth with the various concentrations of the fatty acid is left at pH 4.5 for 24 hrs with constant stirring at room temperature.
The fermentation broth is tested after 24 hrs and inactivation of the microbial host cells is successful if there is no growth on agar plates—samples are incubated for 4 days at 30 degrees Celsius.
Hexanoic acid (100% sol., CAS 142-62-1) was added to the fermentation broth at various concentrations (0.09% (w/w); 0.28% (w/w); 0.46% (w/w); 0.65% (w/w)).
pH was adjusted to 4.5 using an aqueous solution of acetic acid (CAS 64-19-7) and/or aqueous sodium hydroxide (CAS 1310-73-2).
The fermentation broth with the various concentrations of hexanoic acid was left at pH 4.5 for 24 hrs with constant stirring at room temperature.
After 24 hrs the Trichoderma reesei microbial host cells were inactivated (no growth on agar plates—samples were incubated for 4 days at 30 degrees Celsius).

With CCCCCC(=O)O [Hexanoic acid] the “inactivation of Trichoderma reesei microbial host cells (no growth on agar plates)” value was “inactivated”.
